The values that follow come from patent publication US7928102B2, “Irradiated compositions and treatment of cancers with radiation in combination with taurolidine and/or taurultam” (Ed. Geistlich Soehne AG fuer Chemische Industrie, priority 2006, dated 2011).

Series [1] can be described thus: Gamma irradiation of aqueous 1% taurolidine solution, radiolysis products. The class given is physicochemical. The note with it: approx. 25 gKy, aqueous 1% solution in 500 ml glass bottles. As to the method: Examination of an aqueous 1% taurolidine solution for radiolysis products. After γ-irradiation (approx. 25 gKy) of a 1% taurolidine solution contained in 500 ml glass bottles the following products can be isolated, or quantitatively determined by means of IR spectroscopy, HPLC/MS analysis, amino acid analysis: […]

Another series deals with B16 4A5 cells. Briefly: Melanoma tumour growth in vivo, B16 4A5 cells injected into right flank. Details: species or system C57BL/6 mice. How it is done: C57BL/6 mice (8-10 week old) (n=120) were injected with B16 4A5 cells (5×10^5 per mouse) into the right flank and divided into control, PVP (solvent for taurolidine), taurolidine (5 mg/mouse, i.p), radiation (5 Gy/mouse), and taurolidine plus radiation. Tumour growth rate, tumour/body weight ratio, lung metastases, and survival rate were recorded. Intra-tumour cell mitosis/apoptosis index, microvessel desity, and splenic cytotoxic T-lymphocyte (CTL) and nature killer (NK) cell-mediated cytotoxic activity were also accessed.

Series [2] can be described thus: Evaluation of crystalline taurolidine powder after sterilisation by gamma-radiation. Format: physicochemical. How it is done:
Two batches of normal crystalline taurolidine powder were produced and sterilised by gamma-radiation. The taurolidine crystals 0.5 g were weighed into 5 ml vials under sterile conditions and laminar flow. The vials were closed by rubber stoppers and seal caps. The closed vials were then radiated with gamma rays of 25 kGy (Range certification 26-30 kGy) and subsequently analysed.

Series [3] deals with Murine melanoma B16 4A5 cells. Put plainly: Cell cycle by FACScan analysis. The class given is cell-based. How it is done:
(§1) Murine melanoma B16 4A5 and B16 F10 cells were treated with taurolidine (0-200 μg/ml), X-ray (Roentgen) radiation (0-4 Gy), or their combination for different time points. Cell cycle was assessed by FACScan analysis. Cell apoptosis and necrosis were determined by FACScan analysis and MTT assay, and further confirmed by DNA gel electrophoresis.

Series [4] deals with Murine melanoma B16 F10 cells. Briefly: Cell cycle by FACScan analysis. Format: cell-based. How it is done:
as §1

In series [5] the test system is Murine melanoma B16 4A5 cells. Briefly: Cell apoptosis and necrosis by FACScan analysis, MTT assay, DNA gel electrophoresis. The class given is cell-based. How it is done: as §1
In series [6] the test system is Murine melanoma B16 F10 cells. The description is as above. The note with it: taurolidine 10-200 μg/ml. The class given is cell-based. As to the method: as §1
Setting [7] is: taurolidine 5 mg/mouse i.p. plus radiation 5 Gy/mouse.
[8] abbreviates: taurolidine 5 mg/mouse i.p. plus radiation 5 Gy/mouse vs taurolidine alone (p<0.01) or radiation alone (p<0.01).
Setting [9] is: taurolidine alone, 0-200 μg/ml, different time points.
Setting [10] is: taurolidine in combination with X-ray radiation (0-4 Gy).

On to `O=S1(=O)CCN(CN2CCS(=O)(=O)NC2)CN1` [taurolidine], for which, in series [1], the “amount after γ-irradiation of a 1% taurolidine solution” value is 3,900 mg. Further, the “content after γ-irradiation of a 1% taurolidine solution” value in series [1] (IR, HPLC/MS, amino acid analysis) worked out at 0.78%. Further, in the series on B16 4A5 cells (setting [7]), the “nature killer (NK) cell cytotoxic activity” value is on record as “enhanced”, the “splenic cytotoxic T-lymphocyte (CTL) cytotoxic activity” value was “enhanced” and the survival result is recorded as “improved survival”. Besides, in the series with B16 4A5 cells (setting [8]), the lung metastatic nodules entry is recorded as “greater reduction”, the tumour growth rate result is reported as “greater reduction” and the tumour/body weight ratio entry was “greater reduction”. Besides, in the series on B16 4A5 cells (taurolidine 5 mg/mouse i.p. plus radiation 5 Gy/mouse, compared to untreated animals (p<0.001)), the “primary and metastatic melanoma tumour growth” value is listed as “significantly attenuated”. Further, in the series on B16 4A5 cells (taurolidine plus radiation group), the “intra-tumour cell mitosis/apoptosis index” value was “significant decreased”. In series [2], the Solubility was 1% and the “evaluation of stability after sterilization by gamma radiation” value was “identical with non-radiated crystals”. For the same compound, in series [2] (crystalline powder after gamma rays of 25 kGy), the Endotoxins result is recorded as “negative”. Further, the cell cycle result in series [3] (setting [9]) is “cell cycle at G0/G1 phase with an enhanced sub-G1 population in a dose- and time-dependent manner”. In addition, the cell cycle entry in series [3] (setting [10]) is recorded as “cell cycle arrest at G2/M phase with absence of sub-G1 population”. In addition, the cell cycle entry in series [4] (setting [9]) was “cell cycle at G0/G1 phase with an enhanced sub-G1 population in a dose- and time-dependent manner”. Besides, in series [4] (setting [10]), the cell cycle entry is listed as “cell cycle arrest at G2/M phase with absence of sub-G1 population”. The apoptosis entry in series [5] (25 μg/ml taurolidine alone) was “failed to induce apoptosis”. In series [5] (25 μg/ml taurolidine in combination with 0.5 Gy radiation), the apoptosis stood at 70%. The cell apoptosis entry in series [5] (taurolidine 10-200 μg/ml) was “dose- and time-dependent cell apoptosis”. The cell apoptosis entry in series [6] was “dose- and time-dependent cell apoptosis”.
